In patent publication US11089783B2, “2-(het)aryl-substituted fused heterocycle derivatives as pesticides” (Bayer Aktiengesellschaft, priority 2017, dated 2021):

Experiments:
Type in all cases: in vivo
Diabrotica balteata = Diabrotica balteata drench test (DIABBA); details: soil, 192 h, 8 dat, read-out: % efficacy
Method: [table] To produce an appropriate active ingredient formulation, 1 part by weight of active ingredient is mixed with the specified amounts of solvent and emulsifier and the concentrate is diluted to the desired concentration with water, it being necessary to take into account the volume of soil into which drenching is effected. It should be ensured that a concentration of 40 ppm of emulsifier in the soil is not exceeded. For production of further test concentrations, the mixture is diluted with water. 5 maize kernels in each case are sown into soil-filled pots (Zea mays) and, the next day, drenched with the active ingredient formulation of the desired concentration. After one day, about 25 L2 larvae of the banded cucumber beetle (Diabrotica balteata) were added. After 8 days, the efficacy in % is determined. 100% means that all 5 plants have germinated and grown; 0% means that no plant has emerged.

Myzus persicae = Myzus persicae drench test (MYZUPE D), savoy cabbage plants; details: soil, 240 h, 0.16 ppm, 10 dat, read-out: % efficacy
Method: [table] To produce an appropriate active ingredient formulation, 1 part by weight of active ingredient is mixed with the specified amounts of solvent and emulsifier and the concentrate is diluted to the desired concentration with water, it being necessary to take into account the volume of soil into which drenching is effected. It should be ensured that a concentration of 40 ppm of emulsifier in the soil is not exceeded. For production of further test concentrations, the mixture is diluted with water. Savoy cabbage plants (Brassica oleracea) in soil pots, infested by all stages of the green peach aphid (Myzus persicae), are drenched with an active ingredient formulation of the desired concentration. After the desired time, the efficacy in % is determined. 100% means that all the aphids have been killed; 0% means that no aphids have been killed.

Nilaparvata lugens = Nilaparvata lugens spray test (NILALU); details: Nilaparvata lugens, 96 h, 4 g/ha, 4 dat, read-out: % efficacy
Outline: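 Rice plants (Oryza sativa) sprayed with compound formulated in solvent and water with 1000 ppm emulsifier, ammonium salts/penetrants at 1000 ppm if needed, then infested with brown planthopper larvae. After the set time, efficacy scored as % planthoppers killed (100% all, 0% none).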

CCS(=O)(=O)c1ccc(NC(=O)NC)nc1-c1nc2cc(C(F)(F)C(F)(F)F)nnc2n1C [Example I-08, 1-{5-(ethylsulfonyl)-6-[7-methyl-3-(pentafluoroethyl)-7H-imidazo[4,5-c]pyridazin-6-yl]pyridin-2-yl}-3-methylurea]
Emax at 20 ppm (Diabrotica balteata): 100%

CCS(=O)(=O)c1ccc(N(C)C(=O)NC)nc1-c1nc2cc(C(F)(F)C(F)(F)F)nnc2n1C [Example I-09]
Emax at 0.16 ppm (Myzus persicae): 99%

CCS(=O)(=O)c1ccc(NC(=O)N(C)C)nc1-c1nc2cc(C(F)(F)C(F)(F)F)nnc2n1C [Example I-10]
Emax at 4 g/ha (Nilaparvata lugens): 90%
